From patent publication EP4559911A1, “NOVEL HETEROCYCLIC COMPOUND AND PHARMACEUTICAL COMPOSITION FOR INHIBITING AUTOTAXIN COMPRISING THE SAME” (Nextgen Bioscience Co., Ltd., priority 2022, dated 2024) come the findings set out here.

Molecules are shown by their SMILES.

This assay concerns the target human Autotaxin protein (Homo sapiens, UniProt Q13822). The assay is described as follows: Evaluation of the inhibitory activity against human Autotaxin protein (18:1 LysoPC substrate, choline assay kit, absorbance at 570 nm). To be noted: compound at 500nM; 2 hours at 37 °C; % inhibition = (1 - absorbance test group / absorbance control group) X 100. It counts as biochemical. The procedure, abridged:
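Human autotaxin (20 μL of 240 nM stock) was reacted with sonicated 18:1 LysoPC (10 μL of 360 μM stock) in Tris pH 8.0 buffer with BSA for 2 h at 37 °C, using 6 compound concentrations from 5-fold dilution. Released choline was detected via choline oxidase/dye probe (30 min), read as absorbance at 570 nm. % inhibition was calculated relative to control.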
Take `CS(=O)(=O)OC1CCN(c2nnc(-c3cnc(NC4Cc5cc(F)c(F)cc5C4)nc3)o2)C1` (stereo not drawn) [Example 27, 1-(5-(2-((5,6-difluoro-2,3-dihydro-1H-inden-2-yl)amino)pyrimidin-5-yl)-1,3,4-oxadiazol-2-yl)pyrrolidin-3-yl methanesulfonate]: the inhibition at 0.5 µM came out at 12.1%.
As to `c1cnc2c(n1)CC(Nc1ncc(-c3nnc(N4CCC(c5c[nH]nn5)C4)o3)cn1)C2` (stereo not drawn) [Example 7, N-(5-(5-(3-(1H-1,2,3-triazol-4-yl)pyrrolidin-1-yl)-1,3,4-oxadiazol-2-yl)pyrimidin-2-yl)-6,7-dihydro-5H-cyclopenta[b]pyrazin-6-amine], 0.5 µM produced 17% inhibition.
The value for `Fc1cc2c(cc1F)CC(Nc1ncc(-c3nnc(N4CC(N5CCOCC5)C4)o3)cn1)C2` [Example 81, N-(5,6-difluoro-2,3-dihydro-1H-inden-2-yl)-5-(5-(3-morpholinoazetidin-1-yl)-1,3,4-oxadiazol-2-yl)pyrimidin-2-amine] was 7%.
In turn, `COc1ccc2c(c1)CC(Nc1ncc(-c3nnc(N4CC(c5cn(COC(=O)C(C)(C)C)nn5)C4)o3)cn1)C2` (stereo not drawn) [Example 70, (4-(1-(5-(2-((5-methoxy-2,3-dihydro-1H-inden-2-yl)amino)pyrimidin-5-yl)-1,3,4-oxadiazol-2-yl)azetidin-3-yl)-1H-1,2,3-triazol-1-yl)methyl pivalate] showed an inhibition at 0.5 µM of 9.6%.
Turning to `c1cc2c(cc1CNc1ncc(-c3nnc(N4CCC(c5c[nH]nn5)C4)o3)cn1)OCO2` (stereo not drawn) [Example 6, 5-(5-(3-(1H-1,2,3-triazol-4-yl)pyrrolidin-1-yl)-1,3,4-oxadiazol-2-yl)-N-(benzo[d][1,3]dioxol-5-ylmethyl)pyrimidin-2-amine], the inhibition at 0.5 µM amounted to 30.4%.
In turn, `Fc1ccc2c(c1)CC(Nc1ncc(-c3nnc(N4CCC(c5c[nH]nn5)C4)o3)cn1)C2` (stereo not drawn) [Example 36, 5-(5-(3-(1H-1,2,3-triazol-4-yl)pyrrolidin-1-yl)-1,3,4-oxadiazol-2-yl)-N-(5-fluoro-2,3-dihydro-1H-inden-2-yl)pyrimidin-2-amine] registered an inhibition at 0.5 µM of 97.4%.
The value for `Brc1ccc2c(c1)CC(Nc1ncc(-c3nnc(N4CC(c5c[nH]nn5)C4)o3)cn1)C2` (stereo not drawn) [Example 64, 5-(5-(3-(1H-1,2,3-triazol-4-yl)azetidin-1-yl)-1,3,4-oxadiazol-2-yl)-N-(5-bromo-2,3-dihydro-1H-inden-2-yl)pyrimidin-2-amine] was 100%; that for `O=C(CCc1cnc(NC2Cc3cc(F)c(F)cc3C2)nc1)N1CC(c2c[nH]nn2)C1` [Example 44, 1-(3-(1H-1,2,3-triazol-4-yl)azetidin-1-yl)-3-(2-((5,6-difluoro-2,3-dihydro-1H-inden-2-yl)amino)pyrimidin-5-yl)propan-1-one] was 51.5%.
Turning to `Clc1ccc(CCNc2ncc(-c3nnc(N4CC(c5c[nH]nn5)C4)o3)cn2)cc1` [Example 93, 5-(5-(3-(1H-1,2,3-triazol-4-yl)azetidin-1-yl)-1,3,4-oxadiazol-2-yl)-N-(4-chlorophenethyl)pyrimidin-2-amine], the inhibition at 0.5 µM stood at 89.3%.
Regarding `Clc1ccc2c(c1)CC(Nc1ncc(-c3nnc(N4CC(c5c[nH]nn5)C4)o3)cn1)C2` (stereo not drawn) [Example 91, 5-(5-(3-(1H-1,2,3-triazol-4-yl)azetidin-1-yl)-1,3,4-oxadiazol-2-yl)-N-(5-chloro-2,3-dihydro-1H-inden-2-yl)pyrimidin-2-amine], at 0.5 µM the inhibition was 97.1%.
Molecule `CC1(c2c[nH]nn2)CN(c2nnc(-c3cnc(NC4Cc5ccccc5C4)nc3)o2)C1` [Example 69, N-(2,3-dihydro-1H-inden-2-yl)-5-(5-(3-methyl-3-(1H-1,2,3-triazol-4-yl)azetidin-1-yl)-1,3,4-oxadiazol-2-yl)pyrimidin-2-amine] yielded an inhibition at 0.5 µM of 95.4%.
For `Cc1ncn(C2CN(c3nnc(-c4cnc(NC5Cc6cc(F)c(F)cc6C5)nc4)o3)C2)n1` [Example 80, N-(5,6-difluoro-2,3-dihydro-1H-inden-2-yl)-5-(5-(3-(3-methyl-1H-1,2,4-triazol-1-yl)azetidin-1-yl)-1,3,4-oxadiazol-2-yl)pyrimidin-2-amine], the inhibition at 0.5 µM turned out to be 10.4%.
`CC(C)(C)C(=O)OCn1cc(C2CCN(c3nnc(-c4cnc(NC5Cc6cccnc6C5)nc4)o3)C2)nn1` (stereo not drawn) [Example 4, (4-(1-(5-(2-((6,7-dihydro-5H-cyclopenta[b]pyridin-6-yl)amino)pyrimidin-5-yl)-1,3,4-oxadiazol-2-yl)pyrrolidin-3-yl)-1H-1,2,3-triazol-1-yl)methyl pivalate] registered an inhibition at 0.5 µM of 1%.
Consider `CC(C)(C)C(=O)OCn1cc(C2CN(c3nnc(-c4cnc(NC5Cc6nccnc6C5)nc4)o3)C2)nn1` [Example 72, (4-(1-(5-(2-((6,7-dihydro-5H-cyclopenta[b]pyrazin-6-yl)amino)pyrimidin-5-yl)-1,3,4-oxadiazol-2-yl)azetidin-3-yl)-1H-1,2,3-triazol-1-yl)methyl pivalate], for which the inhibition at 0.5 µM was determined as 3.1%.
On to `Fc1ccc2c(c1)CC(Nc1ncc(-c3nnc(N4CC(c5c[nH]nn5)C4)o3)cn1)C2` (stereo not drawn) [Example 65, 5-(5-(3-(1H-1,2,3-triazol-4-yl)azetidin-1-yl)-1,3,4-oxadiazol-2-yl)-N-(5-fluoro-2,3-dihydro-1H-inden-2-yl)pyrimidin-2-amine], for which the inhibition at 0.5 µM was 100%.
